Patent EP1561465A2, “Methods of use of fluoroquinolone compounds against bacteria” (LG Life Sciences, Ltd., priority 1999, dated 2001)
Values after ≈ are worked out from the molar mass of the structure shown.

Columns and labels:
Type in all cases: cell-based
Streptococcus pneumoniae [1] = test: MIC by NCCLS broth microdilution, 1100 Japanese clinical isolates 1997-1998; conditions: for MIC50 / MIC90 / MIC: Streptococcus pneumoniae; for MIC50: read-out: MIC50; for MIC90: read-out: MIC90; for MIC: Streptococcus pneumoniae quinolone resistant
Escherichia coli = test: MIC by agar dilution (NCCLS), 322 nosocomial Gram negative isolates, Athens 1998; conditions: n = 57 isolates
Streptococcus pneumoniae [2] = test: MIC by E-test (broth microdilution for gemifloxacin), 107 pneumococcal carrier isolates, Athens 1998; conditions: E-test; for MIC Range: in µg/mL (unit assumed); for MIC50 / MIC90: Streptococcus pneumoniae; for MIC50: read-out: MIC50; for MIC90: read-out: MIC90
Description: Susceptibility testing was performed by agar dilution or epsilometer method (E-test), as recommended by the NCCLS. […] The susceptibility profiles of the strains were assessed using the Epsilometer method (E-test). The isolates were subdivided into two groups according to their penicillin susceptibility patterns (penicillin-susceptible and penicillin-intermediate.

Moraxella catarrhalis [3] = test: MIC by agar dilution (NCCLS), 411 isolates Buenos Aires 1998-99; conditions: Moraxella catarrhalis (n = 59)
Shigella spp. = test: MIC by agar dilution (NCCLS M7-A4), 288 enteropathogenic isolates, eight quinolones; conditions: Shigella spp. (n = 21)
Moraxella catarrhalis [4] = test: MIC by NCCLS reference broth microdilution, 450 respiratory tract pathogens
Enterobacter spp. = test: MIC by agar dilution (NCCLS), 322 nosocomial Gram negative isolates, Athens 1998; conditions: n = 57 isolates
[5] = tested on: Gram positive anaerobic and facultative anaerobic pathogens; test: microbe, parasite or virus in culture
[6] = Streptococcus pneumoniae amoxicillin resistant (n=40)
[7] = Streptococcus pneumoniae amoxicillin susceptible (n=35)
[8] = Streptococcus pneumoniae erythromycin resistant (n=34)
[9] = Streptococcus pneumoniae erythromycin susceptible (n=11)
[10] = Penicillin-intermediate S. pneumoniae (n = 24)
[11] = Penicillin-susceptible S. pneumoniae (n = 107)

CO/N=C1\CN(c2nc3c(cc2F)c(=O)c(C(=O)O)cn3C2CC2)CC1CN (racemic) [Gemifloxacin, (R,S)-7-(3-aminomethyl-4-methoxyiminopyrrolidin-1-yl)-1-cyclopropyl-6-fluoro-4-oxo-1,4-dihydro-1,8-naphthyridine-3-carboxylic acid]
MIC Range (Streptococcus pneumoniae [1]; [6]): 0.016 to 0.125 mg/L
MIC Range (Streptococcus pneumoniae [1]; [7]): ≤0.008 to 0.125 mg/L
MIC Range (Streptococcus pneumoniae [1]; [8]): ≤0.008 to 0.125 mg/L
MIC Range (Streptococcus pneumoniae [1]; [9]): 0.016 to 0.032 mg/L
MIC50 (Streptococcus pneumoniae [1]; [6]): 0.032 mg/L (≈ 0.0822 µM)
MIC90 (Streptococcus pneumoniae [1]; [6]): 0.032 mg/L (≈ 0.0822 µM)
MIC50 (Streptococcus pneumoniae [1]; [7]): 0.016 mg/L (≈ 0.0411 µM)
MIC90 (Streptococcus pneumoniae [1]; [7]): 0.032 mg/L (≈ 0.0822 µM)
MIC50 (Streptococcus pneumoniae [1]; [8]): 0.016 mg/L (≈ 0.0411 µM)
MIC90 (Streptococcus pneumoniae [1]; [8]): 0.032 mg/L (≈ 0.0822 µM)
MIC50 (Streptococcus pneumoniae [1]; [9]): 0.032 mg/L (≈ 0.0822 µM)
MIC90 (Streptococcus pneumoniae [1]; [9]): 0.032 mg/L (≈ 0.0822 µM)
MIC (Streptococcus pneumoniae [1]; strain TMS1): 0.032 mg/L (≈ 0.0822 µM)
MIC (Streptococcus pneumoniae [1]; strain TMS2): 0.5 mg/L (≈ 1.28 µM)
activity higher than that of the other quinolones (Streptococcus pneumoniae [1]; quinolone-resistant S. pneumoniae): 2-128 fold
MIC50 (Escherichia coli; Escherichia coli): ≤ 0.03 mg/L
MIC90 (Escherichia coli; Escherichia coli): 0.25 mg/L (≈ 0.642 µM)
MIC Range (Escherichia coli): ≤0.03 to 64 mg/L
MIC Range (Streptococcus pneumoniae [2]; [10]): 0.004-0.125
MIC Range (Streptococcus pneumoniae [2]; [11]): 0.002-0.19
MIC50 (Streptococcus pneumoniae [2]; [10]): 0.064 mg/L (≈ 0.164 µM)
MIC90 (Streptococcus pneumoniae [2]; [10]): 0.23 mg/L (≈ 0.591 µM)
MIC50 (Streptococcus pneumoniae [2]; [11]): 0.032 mg/L (≈ 0.0822 µM)
MIC90 (Streptococcus pneumoniae [2]; [11]): 0.064 mg/L (≈ 0.164 µM)
MIC Range (Moraxella catarrhalis [3]): ≤0.004 to 0.016 mg/L
MIC90 (Moraxella catarrhalis [3]; read-out: MIC90): 0.008 mg/L (≈ 0.0205 µM)
% Susceptible (Shigella spp.): 100%
MIC50 (Shigella spp.): ≤ 0.015 mg/L
MIC90 (Shigella spp.): ≤ 0.015 mg/L
MIC Range (Shigella spp.): ≤0.015 mg/L
MIC (Moraxella catarrhalis [4]; Moraxella catarrhalis (n = 50)): 0.00375 to 0.03 mg/L (≈ 0.00963 to 0.077 µM)
MIC50 (Moraxella catarrhalis [4]; Moraxella catarrhalis (n = 50)): 0.015 mg/L (≈ 0.0385 µM)
MIC90 (Moraxella catarrhalis [4]; Moraxella catarrhalis (n = 50)): 0.015 mg/L (≈ 0.0385 µM)
MIC (Moraxella catarrhalis [4]; β-lactamase negative (n = 13)): 0.00375 to 0.015 mg/L (≈ 0.00963 to 0.0385 µM)
MIC50 (Moraxella catarrhalis [4]; β-lactamase negative (n = 13)): 0.015 mg/L (≈ 0.0385 µM)
MIC90 (Moraxella catarrhalis [4]; β-lactamase negative (n = 13)): 0.015 mg/L (≈ 0.0385 µM)
MIC (Moraxella catarrhalis [4]; β-lactamase positive (n = 37)): 0.00375 to 0.03 mg/L (≈ 0.00963 to 0.077 µM)
MIC50 (Moraxella catarrhalis [4]; β-lactamase positive (n = 37)): 0.015 mg/L (≈ 0.0385 µM)
MIC90 (Moraxella catarrhalis [4]; β-lactamase positive (n = 37)): 0.015 mg/L (≈ 0.0385 µM)
MIC50 (Enterobacter spp.; Enterobacter, read-out: MIC50): 0.06 mg/L (≈ 0.154 µM)
MIC90 (Enterobacter spp.; Enterobacter, read-out: MIC90): 16 mg/L (≈ 41.1 µM)
MIC Range (Enterobacter spp.): ≤0.03 to 64 mg/L
MIC ([5]; Bifidobacterium adolescentis, ATCC15703): 0.25 mg/L (≈ 0.642 µM)
MIC ([5]; Bifidobacterium bifidum, JCM1255): 2 mg/L (≈ 5.14 µM)
MIC ([5]; Bifidobacterium breve, ATCC15700): 1 mg/L (≈ 2.57 µM)
MIC ([5]; Bifidobacterium longum, ATCC15707): 1 mg/L (≈ 2.57 µM)
MIC ([5]; Bifidobacterium pseudolongum, ATCC25526): 1 mg/L (≈ 2.57 µM)
MIC ([5]; Clostridioides difficile): 2 mg/L (≈ 5.14 µM)
MIC ([5]; Clostridium perfringens, ATCC13124): 0.06 mg/L (≈ 0.154 µM)
MIC ([5]; Clostridium septicum, ATCC12464): 0.06 mg/L (≈ 0.154 µM)
MIC ([5]; Cutibacterium acnes, ATCC11828): 0.25 mg/L (≈ 0.642 µM)
MIC ([5]; Eggerthella lenta, ATCC25559): 0.25 mg/L (≈ 0.642 µM)
MIC ([5]; Finegoldia magna, ATCC29328): ≤ 0.03 mg/L
MIC ([5]; Gemella morbillorum, ATCC27824): 0.25 mg/L (≈ 0.642 µM)
MIC ([5]; Lacticaseibacillus casei, JCM1134): ≤ 0.03 mg/L
MIC ([5]; Lactiplantibacillus plantarum, JCM1149): 2 mg/L (≈ 5.14 µM)
MIC ([5]; Lactobacillus acidophilus, JCM1132): 0.5 mg/L (≈ 1.28 µM)
MIC ([5]; Levilactobacillus brevis, JCM1059): 0.5 mg/L (≈ 1.28 µM)
MIC ([5]; Ligilactobacillus salivarius, JCM1231): 0.06 mg/L (≈ 0.154 µM)
MIC ([5]; Limosilactobacillus reuteri, JCM1112): 0.25 mg/L (≈ 0.642 µM)
MIC ([5]; Limosilactobacillus reuteri, JCM1173): 0.25 mg/L (≈ 0.642 µM)
MIC ([5]; Paraclostridium sordellii, ATCC9714): 0.5 mg/L (≈ 1.28 µM)
MIC ([5]; Parvimonas micra): 0.125 mg/L (≈ 0.321 µM)
MIC ([5]; Peptoniphilus asaccharolyticus): 0.125 mg/L (≈ 0.321 µM)
MIC ([5]; Peptoniphilus indolicus): ≤ 0.03 mg/L
MIC ([5]; Peptostreptococcus anaerobius, ATCC27337): 0.06 mg/L (≈ 0.154 µM)
MIC ([5]; Schaalia odontolytica): 4 mg/L (≈ 10.3 µM)
MIC ([5]; Staphylococcus saccharolyticus, ATCC14953): ≤ 0.03 mg/L
MIC ([5]; Streptococcus constellatus, ATCC27823): ≤ 0.03 mg/L
MIC ([5]; Streptococcus intermedius, ATCC27335): 0.06 mg/L (≈ 0.154 µM)
